Measured values from patent US10231452B2, “Thiopicolinamide compounds with fungicidal activity” (Dow AgroSciences LLC, priority 2016, dated 2019).
Read-outs that look alike come from different tables or passages of the source.

Key:
Zymoseptoria tritici = assay: Fungicidal activity: leaf blotch of wheat (SEPTTR), disease control on wheat seedlings; type: in vivo; settings: wheat (Yuma); for pest or weed control at 100 ppm: high volume application; for pest or weed control at 121.5 g/ha: low volume application, 121.5 g/H
Method: Evaluation of Fungicidal Activity: Leaf Blotch of Wheat (Zymoseptoria Tritici; Bayer Code […]) Technical grades of materials were dissolved in acetone, which were then mixed with nine volumes of water (H2O) containing 110 ppm Triton X-100. The fungicide solutions were applied onto wheat seedlings using an automated booth sprayer to run-off. All sprayed plants were allowed to air dry prior to further handling. All fungicides were evaluated using the aforementioned method for their activity vs. all target diseases, unless stated otherwise. Wheat leaf blotch and brown rust activity were also evaluated using track spray applications, in which case the fungicides were formulated as EC formulations, containing 0.1% Trycol 5941 in the spray solutions. Wheat plants (variety Yuma) were grown from seed in a greenhouse in 50% mineral soil/50% soil-less Metro mix until the first leaf was fully emerged, with 7-10 seedlings per pot. These plants were inoculated with an aqueous spore suspension of Zymoseptoria tritici either prior to or after fungicide treatments. After inoculation the plants were kept in 100% relative humidity (one day in a dark dew chamber followed by two to three days in a lighted dew chamber at 20° C.) to permit spores to germinate and infect the leaf. The plants were then transferred to a greenhouse set at 20° C. for disease to develop. When disease symptoms were fully expressed on the 1st leaves of untreated plants, infection levels were assessed on a scale of 0 to 100 percent disease severity. Percent disease control was calculated using the ratio of disease severity on treated plants relative to untreated plants.

Puccinia triticina = assay: Fungicidal activity: wheat brown rust (PUCCRT), disease control on wheat seedlings; type: in vivo; settings: wheat (Yuma); for pest or weed control at 100 ppm: high volume application; for pest or weed control at 121.5 g/ha: low volume application, 121.5 g/H
Method: Technical grades of materials were dissolved in acetone, which were then mixed with nine volumes of water (H2O) containing 110 ppm Triton X-100. The fungicide solutions were applied onto wheat seedlings using an automated booth sprayer to run-off. All sprayed plants were allowed to air dry prior to further handling. All fungicides were evaluated using the aforementioned method for their activity vs. all target diseases, unless stated otherwise. Wheat leaf blotch and brown rust activity were also evaluated using track spray applications, in which case the fungicides were formulated as EC formulations, containing 0.1% Trycol 5941 in the spray solutions.
Evaluation of Fungicidal Activity: Wheat Brown Rust (Puccinia Triticina; Synonym: Puccinia recondita f. Sp. Tritici; Bayer Code PUCCRT)
Wheat plants (variety Yuma) were grown from seed in a greenhouse in 50% mineral soil/50% soil-less Metro mix until the first leaf was fully emerged, with 7-10 seedlings per pot. These plants were inoculated with an aqueous spore suspension of Puccinia triticina either prior to or after fungicide treatments. After inoculation the plants were kept in a dark dew room at 22° C. with 100% relative humidity overnight to permit spores to germinate and infect the leaf. The plants were then transferred to a greenhouse set at 24° C. for disease to develop. Fungicide formulation, application and disease assessment followed the procedures as described in the Example A. The results of the evaluation are shown below in Table 4.

Phakopsora pachyrhizi = assay: Fungicidal activity: Asian soybean rust (PHAKPA), disease control on soybean seedlings; type: in vivo; settings: soybean (Williams 82)
Method: Evaluation of Fungicidal Activity: Asian Soybean Rust (Phakopsora pachyrhizi; Bayer Code PHAKPA)
Technical grades of materials were dissolved in acetone, which were then mixed with nine volumes of H2O containing 0.011% Tween 20. The fungicide solutions were applied onto soybean seedlings using an automated booth sprayer to run-off. All sprayed plants were allowed to air dry prior to further handling.
Soybean plants (variety Williams 82) were grown in soil-less Metro mix, with one plant per pot. Two weeks old seedlings were used for testing. Plants were inoculated either 3 days prior to or 1 day after fungicide treatments. Plants were incubated for 24 h in a dark dew room at 22° C. and 100% relative humidity then transferred to a growth room at 23° C. for disease to develop. Disease severity was assessed on the sprayed leaves.

[1] = 24 h, 1 day protectant, read-out: SEPTTR 1DP disease control, HV activity at 100 ppm
[2] = 72 h, 3 day curative, read-out: SEPTTR 3DC disease control, HV activity at 100 ppm
[3] = 24 h, 1 day protectant, read-out: PUCCRT 1DP disease control, HV activity at 100 ppm
[4] = 72 h, 3 day curative, read-out: PUCCRT 3DC disease control, HV activity at 100 ppm
[5] = 24 h, 1 day protectant, read-out: SEPTTR 1DP disease control, LV activity at 121.5 g/H
[6] = 72 h, 3 day curative, read-out: SEPTTR 3DC disease control, LV activity at 121.5 g/H
[7] = 24 h, 1 day protectant, read-out: PUCCRT 1DP disease control, LV activity at 121.5 g/H
[8] = 72 h, 3 day curative, read-out: PUCCRT 3DC disease control, LV activity at 121.5 g/H

COc1cc(C)ccc1C(c1ccc(F)cc1OC)[C@H](C)OC(=O)[C@H](C)NC(=S)c1nccc(OC)c1O (some centres unmarked) [Compound 29]
pest or weed control at 100 ppm (Zymoseptoria tritici; [1]): > 80% | pest or weed control at 100 ppm (Zymoseptoria tritici; [2]): > 80% | pest or weed control at 100 ppm (Puccinia triticina; [3]): > 80% | pest or weed control at 100 ppm (Puccinia triticina; [4]): > 80% | melting point: 60 to 72 °C

COc1ccnc(C(=S)N[C@@H](C)C(=O)O[C@@H](C)[C@H](Oc2ccc(C)cc2)C2CCCC2)c1O [Compound 38]
pest or weed control at 100 ppm (Zymoseptoria tritici; [1]): > 80% | pest or weed control at 100 ppm (Zymoseptoria tritici; [2]): ≤ 80% | pest or weed control at 100 ppm (Puccinia triticina; [3]): > 80% | pest or weed control at 100 ppm (Puccinia triticina; [4]): > 80% | melting point: 49 to 57 °C

CCCCC[C@@H](OC(=O)[C@H](C)NC(=S)c1nccc(OC)c1OC(C)=O)[C@H](C)Oc1ccccc1 [Compound 41]
pest or weed control at 121.5 g/ha (Zymoseptoria tritici; [5]): > 80% | pest or weed control at 121.5 g/ha (Zymoseptoria tritici; [6]): > 80% | pest or weed control at 121.5 g/ha (Puccinia triticina; [7]): > 80% | pest or weed control at 121.5 g/ha (Puccinia triticina; [8]): > 80%

COc1cc(C)ccc1C(c1ccc(F)cc1OC)[C@H](C)OC(=O)[C@H](C)NC(=S)c1nccc(OC)c1OC(C)=O (some centres unmarked) [Compound 65]
pest or weed control at 121.5 g/ha (Zymoseptoria tritici; [5]): > 80% | pest or weed control at 121.5 g/ha (Zymoseptoria tritici; [6]): > 80% | pest or weed control at 121.5 g/ha (Puccinia triticina; [7]): > 80% | pest or weed control at 121.5 g/ha (Puccinia triticina; [8]): > 80% | pest or weed control at 25 ppm (Phakopsora pachyrhizi; 24 h, 1 day protectant, read-out: PHAKPA 1DP disease control at 25 ppm): > 80% | pest or weed control at 25 ppm (Phakopsora pachyrhizi; 72 h, 3 day curative, read-out: PHAKPA 3DC disease control at 25 ppm): ≤ 80%
